Series [1] relates to Hepatitis B virus. The series is described as follows: Antiviral activity against Hepatitis B virus infected in human primary hepatocytes assessed as reduction in HbsAg secretion level at 25 uM treated for 1 hr on day 5 post-infection followed by removal of media and supplemented with fresh media and further incubated for 3 days then followed by treatment for 1 hr on day 8 post-infection followed by removal of media and supplemented with fresh media and further incubated for 3 days in presence of 10 mM ABT and measured on day 11 post-infection by chemiluminescence immunostaining assay. In kind it is functional, Primary hepatocyte. Further details: scale not given: the % may be the effect or the level left.

Another series addresses Cytochrome P450 2C9 (Homo sapiens, UniProt P11712). Nature of the series: Inhibition of CYP2C9 in HBV-infected human primary hepatocytes at 5 to 100 uM using luciferin-H as substrate treated for 1 hr on day 5 post-infection followed by removal of media and supplemented with fresh media and further incubated for 3 days then followed by treatment for 1 hr on day 8 post-infection followed by removal of media and supplemented with fresh media and further incubated for 3 days and measured on day 11 post-infection by P450-Glo chemiluminescent assay. The following applies: dose 5-100 µM. The series is classed as ADME, tissue-based, Primary hepatocyte.

The target of series [2] is T1, CYP1A2 (Homo sapiens, UniProt P05177).
T1 sequence (P05177 whole entry): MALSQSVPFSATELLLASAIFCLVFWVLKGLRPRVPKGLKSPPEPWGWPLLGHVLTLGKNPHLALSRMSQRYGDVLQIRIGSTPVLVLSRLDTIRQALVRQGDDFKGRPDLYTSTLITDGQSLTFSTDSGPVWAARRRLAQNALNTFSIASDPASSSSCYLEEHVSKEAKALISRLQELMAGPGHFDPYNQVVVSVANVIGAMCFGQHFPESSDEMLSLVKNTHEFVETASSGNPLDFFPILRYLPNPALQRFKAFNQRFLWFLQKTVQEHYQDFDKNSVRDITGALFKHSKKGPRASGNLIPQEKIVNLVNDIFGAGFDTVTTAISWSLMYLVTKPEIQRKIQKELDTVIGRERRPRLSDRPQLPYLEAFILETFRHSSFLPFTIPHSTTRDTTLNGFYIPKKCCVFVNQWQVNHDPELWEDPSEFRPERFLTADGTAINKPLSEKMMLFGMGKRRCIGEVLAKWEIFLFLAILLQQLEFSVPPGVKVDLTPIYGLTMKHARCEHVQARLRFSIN
The series is described as follows: Inhibition of CYP1A2 in HBV-infected human HepaRG cells at 50 uM using luciferin-1A2 as substrate treated for 1 hr on day 5 post-infection followed by removal of media and supplemented with fresh media and further incubated for 3 days then followed by treatment for 1 hr on day 8 post-infection followed by removal of media and supplemented with fresh media and further incubated for 3 days in presence of 10 mM ABT and measured on day 11 post-infection by P450-Glo chemiluminescent assay relative to control. In kind it is ADME, tissue-based. The following applies: probe luciferin-1A2, with ABT 10 mM.

Series [3] deals with HepaRG. The series is described as follows: Cytotoxicity against human HepaRG cells infected with HBV assessed as reduction in cell viability at 5 to 100 uM treated for 1 hr on day 5 post-infection followed by removal of media and supplemented with fresh media and further incubated for 3 days then followed by treatment for 1 hr on day 8 post-infection followed by removal of media and supplemented with fresh media and further incubated for 3 days and measured on day 11 post-infection by Celltiter-Glo assay. The series is classed as cell-based. The following applies: dose 5-100 µM.

In a further series the target is T2, Cytochrome P450 1A2 (Homo sapiens, UniProt P05177).
T2 sequence (P05177 whole entry): T1 sequence (P05177 whole entry)
Nature of the series: Inhibition of CYP1A2 in HBV-infected human primary hepatocytes at 0.2 to 20 mM using luciferin-1A2 as substrate treated for 1 hr on day 5 post-infection followed by removal of media and supplemented with fresh media and further incubated for 3 days then followed by treatment for 1 hr on day 8 post-infection followed by removal of media and supplemented with fresh media and further incubated for 3 days and measured on day 11 post-infection by P450-Glo chemiluminescent assay. In kind it is ADME, tissue-based. Particulars: […], 20000 µM, dose 0.2-20 mM.

Series [4] concerns the target T1, CYP1A2. The series is described as follows: Inhibition of CYP1A2 in HBV-infected human HepaRG cells at 10 mM using luciferin-1A2 as substrate treated for 1 hr on day 5 post-infection followed by removal of media and supplemented with fresh media and further incubated for 3 days then followed by treatment for 1 hr on day 8 post-infection followed by removal of media and supplemented with fresh media and further incubated for 3 days in presence of 50 uM SKF-525A and measured on day 11 post-infection by P450-Glo chemiluminescent assay relative to control. The series is classed as ADME, tissue-based. Particulars: probe luciferin-1A2, with SKF-525A 50 uM.

The target of series [5] is T3, CYP3A4 (Homo sapiens, UniProt P08684). The series is described as follows: Inhibition of CYP3A4 in HBV-infected human HepaRG cells at 10 mM using luciferin-IPA as substrate treated for 1 hr on day 5 post-infection followed by removal of media and supplemented with fresh media and further incubated for 3 days by P450-Glo chemiluminescent assay relative to control. The series is classed as ADME, tissue-based. Particulars: probe luciferin-IPA.

Series [6] relates to Hepatitis B virus. Nature of the series: Antiviral activity against Hepatitis B virus infected in human primary hepatocytes assessed as reduction in HbsAg secretion level at 10 mM treated for 1 hr on day 5 post-infection followed by removal of media and supplemented with fresh media and further incubated for 3 days then followed by treatment for 1 hr on day 8 post-infection followed by removal of media and supplemented with fresh media and further incubated for 3 days in presence of 50 uM SKF-525A and measured on day 11 post-infection by chemiluminescence immunostaining assay relative to control. The series is classed as functional, organism-based. The following applies: Primary hepatocyte.

For series [7], the target named is T1, CYP1A2. The series is described as follows: Inhibition of CYP1A2 in HBV-infected human HepaRG cells at 10 mM using luciferin-1A2 as substrate treated for 1 hr on day 5 post-infection followed by removal of media and supplemented with fresh media and further incubated for 3 days then followed by treatment for 1 hr on day 8 post-infection followed by removal of media and supplemented with fresh media and further incubated for 3 days and measured on day 11 post-infection by P450-Glo chemiluminescent assay relative to control. The series is classed as ADME, tissue-based. Particulars: probe luciferin-1A2.

In another series the target is CYP2C9 (Homo sapiens, UniProt P11712). Nature of the series: Inhibition of CYP2C9 in HBV-infected human HepaRG cells at 10 mM using luciferin-H as substrate treated for 1 hr on day 5 post-infection followed by removal of media and supplemented with fresh media and further incubated for 3 days then followed by treatment for 1 hr on day 8 post-infection followed by removal of media and supplemented with fresh media and further incubated for 3 days in presence of 50 uM SKF-525A and measured on day 11 post-infection by P450-Glo chemiluminescent assay relative to control. The series is classed as ADME, tissue-based. Particulars: probe luciferin-H, with SKF-525A 50 uM.

Series [8] has as its system HepaRG. The series is described as follows: Cytotoxicity against human HepaRG cells infected with HBV assessed as reduction in cell viability at 0.2 to 20 mM treated for 1 hr on day 5 post-infection followed by removal of media and supplemented with fresh media and further incubated for 3 days then followed by treatment for 1 hr on day 8 post-infection followed by removal of media and supplemented with fresh media and further incubated for 3 days and measured on day 11 post-infection by Celltiter-Glo assay. Particulars: 20000 µM, dose 0.2-20 mM. In kind it is cell-based. For orientation: ATP-based viability assays read luminescence as a measure of living cells.

The target in series [9] is T3, CYP3A4. Nature of the series: Inhibition of CYP3A4 in HBV-infected human HepaRG cells at 10 mM using luciferin-IPA as substrate treated for 1 hr on day 5 post-infection followed by removal of media and supplemented with fresh media and further incubated for 3 days in presence of 50 uM SKF-525A by P450-Glo chemiluminescent assay relative to control. The series is classed as ADME, tissue-based. The following applies: probe luciferin-IPA, with SKF-525A 50 uM.

Activity calls are given as the source filed them. The calls are words filed in the database; no cut-off is given here.

T3 sequence (P08684 whole entry): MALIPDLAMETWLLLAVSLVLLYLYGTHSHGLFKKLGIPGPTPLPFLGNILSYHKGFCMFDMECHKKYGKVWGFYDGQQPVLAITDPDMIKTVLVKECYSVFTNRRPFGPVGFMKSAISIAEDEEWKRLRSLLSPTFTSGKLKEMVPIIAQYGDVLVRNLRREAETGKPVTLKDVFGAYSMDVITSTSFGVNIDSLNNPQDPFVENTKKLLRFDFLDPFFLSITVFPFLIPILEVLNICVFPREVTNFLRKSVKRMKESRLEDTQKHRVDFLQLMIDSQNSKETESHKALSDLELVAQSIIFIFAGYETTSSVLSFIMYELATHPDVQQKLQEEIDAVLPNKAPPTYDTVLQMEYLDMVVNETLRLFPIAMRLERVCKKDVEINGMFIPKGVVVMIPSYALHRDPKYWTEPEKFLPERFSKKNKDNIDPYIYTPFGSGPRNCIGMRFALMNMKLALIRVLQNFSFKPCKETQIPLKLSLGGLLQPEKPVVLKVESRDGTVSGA
Chain of CYP2C9 (P11712 whole entry): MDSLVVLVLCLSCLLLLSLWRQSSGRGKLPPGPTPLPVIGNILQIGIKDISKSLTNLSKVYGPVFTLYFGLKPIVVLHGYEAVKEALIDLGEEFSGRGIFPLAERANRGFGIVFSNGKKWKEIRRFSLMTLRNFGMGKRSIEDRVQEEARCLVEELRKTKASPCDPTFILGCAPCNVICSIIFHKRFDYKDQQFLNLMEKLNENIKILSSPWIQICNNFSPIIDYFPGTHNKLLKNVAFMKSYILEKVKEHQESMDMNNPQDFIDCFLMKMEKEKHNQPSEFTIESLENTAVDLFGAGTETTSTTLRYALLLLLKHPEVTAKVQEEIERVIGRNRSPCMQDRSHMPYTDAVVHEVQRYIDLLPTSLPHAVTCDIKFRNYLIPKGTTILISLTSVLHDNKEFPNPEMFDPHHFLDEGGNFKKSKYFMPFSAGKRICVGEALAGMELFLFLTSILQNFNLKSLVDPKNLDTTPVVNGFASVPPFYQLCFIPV
Chain of Cytochrome P450 2C9 (P11712 whole entry): as above

What is called inhibition is the relative decrease from the control value, in per cent. Turning to `CCCC(C(=O)OCCN(CC)CC)(c1ccccc1)c1ccccc1` [PROADIFEN], the figures for the Activity in the series with Hepatitis B virus [1] and in the series on HepaRG [3] were 20% and “Non-Toxic”, respectively. Further, the “inhibition (INH)” value against Cytochrome P450 2C9 was “Active”. For the same molecule, the inhibition at 1 h, 50 µM on CYP1A2 [2] is 88.8%.
`Nn1nnc2ccccc21`: on Cytochrome P450 1A2, the “inhibition (INH)” value is given as “Active”. Also, the inhibition at 1 h, 10000 µM on CYP1A2 [4] stood at 88.8%; against CYP3A4 [5], 9.6%; against CYP1A2 [7] it was 91%; on CYP2C9 it was 82.1%; at CYP3A4 [9], 83.3%. For the same molecule, the outcome with Hepatitis B virus [6] was inactive. Moreover, the Activity result in the series on HepaRG [8] is recorded as “Non-Toxic”.
